Measurements: PMC8658963, “Synthesis and Evaluation of Trypanocidal Activity of Chromane-Type Compounds and Acetophenones” (Molecules, 2021)
Read-outs that look alike come from different tables or passages of the source.

How the values were obtained:
in vitro = conditions: human, Cytotoxicity (LC50)
Protocol: (§1) Cytotoxicity was evaluated in the human monocyte cell line U-937 (ATCC CRL-1593.2) at the exponential growth phase, adjusted at 1 × 10^5 cells/mL in complete RPMI-1640 medium (RPMI-1640 enriched with 200 mM L-glutamine, 10% inactivated fetal bovine serum (FBS) and 1% of a mixture of 10,000 IU/mL penicillin plus […] streptomycin). Then, in each well of a 96-well tissue culture plate were dispensed […] of cells plus […] of each compound (as one of six serials 1:2 dilution concentrations starting at 368 µM prepared in the same medium). Doxorubicin was included as an internal positive control under the same dilution pattern, starting at 18 µM whereas unexposed cells were used as negative controls. Afterward, cells were incubated for 72 h at 37 °C and 5% CO2. Cell viability was assayed by the MTT reduction assay according to the optical density (O.D) at 570 nm of the resulting reduction of formazan in a Varioskan Flash Multimode Reader (Thermo Scientific, Waltham, MA, USA). Nonspecific absorbance was corrected by subtracting the O.D of the blank solution that corresponded to complete RPMI-1640 medium. The assay was done in triplicate in at least two independent experiments.
(§2) The cytotoxicity was expressed as the medial lethal concentration (LC50), while the trypanocidal activity was defined as the median effective concentration (EC50) according to the percentage of inhibition of cells and parasites, respectively, as described elsewhere. Both LC50 and EC50 were calculated by the Probit analysis. […] Similarly, the trypanocidal activity was graded according to EC50 values, based on the hit criteria proposed by others into high when EC50 was lower than 10 μM, moderate when EC50 values were higher than 10 μM but lower than 50 μM and, low when EC50 was higher than 50 μM. The relation between cytotoxicity and trypanocidal activity was expressed as the index of selectivity (IS) that corresponded to the ratio when dividing the LC50 by the EC50.

[1] = system: intracellular amastigotes of T. cruzi (Tulahuen strain transfected with the β-galactosidase gene); assay: Anti-trypanosomal activity, β-galactosidase readout in infected U937 macrophages, 72 h; format: cell-based, Trypanosoma cruzi; conditions: for SI (index of selectivity, IS = LC50/EC50): LC50 in U937 cells divided by EC50 against T. cruzi; for Trypanocidal activity (grade) / Trypanocidal activity compared with the control drug BNZ: T. cruzi intracellular amastigotes; for Trypanocidal activity compared with the control drug BNZ: result in words
Protocol: This activity was carried out in intracellular amastigotes of T. cruzi (Tulahuen strain transfected with the β-galactosidase gene. Briefly, metacyclic trypomastigotes were cultured at 26 °C for ten days in a modified NNN (Novy−McNeal−Nicolle) medium. U937 cells were seeded in 96-well tissue culture plates at a density of 2.5 × 10^4 cells in 100 μL of complete RPMI-1640 medium/well and exposed for 24 h to phorbol myristate acetate (1 ng/mL) to induce transformation of monocytes into macrophages. Cells were infected with trypomastigotes (5 parasites per cell) and incubated for 24 h at 37 °C, 5% CO2. Wells were washed twice with warm phosphate buffer solution (PBS) to remove noninternalized parasites, and then were added 100 μL of complete RPMI-1640 medium and 100 μL of each concentration of compound (50, 12.5, 3.125 μM). BNZ, at the same concentrations, was used as internal control for trypanocidal activity (positive control), and nontreated cells as controls for infection (negative control). After 72 h of incubation 37 °C, 5% CO2, the viability of intracellular amastigotes was determined by measuring the β-galactosidase activity. For this, 100 μM of Chlorophenol red-β-D- galactopyranoside (CPRG), and 0.1% Nonidet P-40 was added to each well and incubated for 4 h at 37 °C, […] protected from light. After that, measurement β-galactosidase activity was measured at 570 nm on a Varioskan, Thermo spectrophotometer. Nonspecific absorbance was subtracted from the measurement. Infected cells exposed to benznidazole were used as controls for anti-trypanosomal activity. Determinations were done in triplicate with at least two independent experiments.

[2] = system: human monocyte cell line U-937 (ATCC CRL-1593.2); assay: in vitro; conditions: for CC50 / Cytotoxicity (LC50): human, 72 h; for Cytotoxicity level (grade): U937 cells, graded by LC50
Protocol: as §1, §2

[3] = Trypanosoma cruzi, TULAHUEN, U-937, 72 h, read-out: Trypanocidal Activity (EC50), intracellular amastigotes of T. cruzi Tulahuen in U937 macrophages, 72 h, average ± SD (SEM)
[4] = Trypanosoma cruzi, TULAHUEN, U-937, read-out: Trypanocidal activity (grade), T. cruzi intracellular amastigotes, graded by EC50
[5] = Trypanosoma cruzi, TULAHUEN, U-937, 72 h, intracellular amastigotes of T. cruzi Tulahuen in U937 macrophages, 72 h, average ± SD (SEM), read-out: Trypanocidal Activity (EC50)
[6] = read-out: Trypanocidal Activity (EC50), intracellular amastigotes of T. cruzi Tulahuen in U937 macrophages, 72 h, average ± SD (SEM)
[7] = Trypanosoma cruzi, TULAHUEN, U-937, T. cruzi intracellular amastigotes, graded by EC50, read-out: Trypanocidal activity (grade)

SMILES	CC50 at 72 h (in vitro) [µM]	SI (index of selectivity, IS = LC50/EC50) [1]	EC50 [1, 3] [µM]	EC50 [1, 5] [µM]	Trypanocidal activity compared with the control drug BNZ [1]	other results
CC(=O)c1ccc(O)c(CC=C(C)C)c1O [Compound 15, 1-(2,4-Dihydroxy-3-(3-methylbut-2-en-1-yl)phenyl)ethan-1-one]	25.2 ± 4.6	1.2	20.7 ± 1.1			EC50 [1, 4]: 10 to 50 µM
O=c1ccoc2c(O)c(O)ccc12 [Compound 13, 7,8-Dihydroxy-4H-chromen-4-one]	43 ± 0.9	0.3		154 ± 26.8		Trypanocidal activity (grade) ([1]; graded by EC50): very low
CC(C)=CCc1c(O)ccc2c(=O)ccoc12 [Compound 24, 7-Hydroxy-8-(3-methylbut-2-en-1-yl)-4H-chromen-4-one]	> 100	>0.9	111 ± 18.5			Trypanocidal activity (grade) ([1]; graded by EC50): very low
CC(=O)c1c(O)cccc1O [Compound 7, 1-(2,6-Dihydroxyphenyl)ethan-1-one]	10.5 ± 0.6	1.5		< 10	much better trypanocidal activity than the control drug BNZ	CC50 [2]: 15.3 ± 1.9 µM; EC50 ([1]; intracellular amastigotes of T. cruzi Tulahuen in U937 macrophages, 72 h, average ± SD (SEM), read-out: Trypanocidal Activity (EC50)): 10.5 ± 0.6 µM
CC(=O)c1c(O)cc(O)c(CC=C(C)C)c1O [Compound 17, 1-(2,4,6-Trihydroxy-3-(3-methylbut-2-en-1-yl)phenyl)ethan-1-one]	21.2 ± 6.9	2.8	< 10			EC50 [1, 6]: 7.5 µM
CC(=O)c1ccc(O)cc1O [Compound 5, 1-(2,4-Dihydroxyphenyl)ethan-1-one]	54 ± 0.5	3.0		17.8 ± 0.8		
O=c1ccoc2ccc(O)cc12 [Compound 11, 6-Hydroxy-4H-chromen-4-one]	28 ± 1.9	2.4		11.8 ± 0.3	much better trypanocidal activity than the control drug BNZ	EC50 [1, 7]: 10 to 50 µM
CC(=O)c1c(O)cc(O)cc1O [Compound 9, 1-(2,4,6-Trihydroxyphenyl)ethan-1-one]	> 200	>4.1		49.3 ± 9		EC50 [1, 7]: 10 to 50 µM
CC(C)=CCc1ccc2occc(=O)c2c1O [Compound 25, 5-Hydroxy-6-(3-methylbut-2-en-1-yl)-4H-chromen-4-one]		>5.8	17.3 ± 0.4		much better trypanocidal activity than the control drug BNZ	Cytotoxicity (LC50) [2]: 47.1 ± 5.5 µM; EC50 [1, 4]: 10 to 50 µM
CC(=O)c1ccc(O)c(O)c1O [Compound 8, 1-(2,3,4-Trihydroxyphenyl)ethan-1-one]	> 200	>10.9		18.3 ± 1.1	much better trypanocidal activity than the control drug BNZ	EC50 [1, 7]: 10 to 50 µM
CC(C)=CCc1cc2c(=O)ccoc2cc1O [Compound 23, 7-Hydroxy-6-(3-methylbut-2-en-1-yl)-4H-chromen-4-one]	> 200	>10	> 20			
O=c1ccoc2cccc(O)c12 [Compound 12, 5-Hydroxy-4H-chromen-4-one]	> 100	>5.0		19.9 ± 1.3	much better trypanocidal activity than the control drug BNZ	EC50 [1, 7]: 10 to 50 µM
CC(=O)c1c(O)ccc(CC=C(C)C)c1O [Compound 16, 1-(2,6-Dihydroxy-3-(3-methylbut-2-en-1-yl)phenyl)ethan-1-one]	< 10	<2	> 4			Cytotoxicity level (grade) [2]: high (high when LC50 values were lower than 50 μM); CC50 [2]: 7.8 ± 3.1 µM
CC(=O)c1cc(CC=C(C)C)c(O)c(O)c1O [Compound 18, 1-(2,3,4-Trihydroxy-5-(3-methylbut-2-en-1-yl)phenyl)ethan-1-one]	< 10					Cytotoxicity level (grade) [2]: high (high when LC50 values were lower than 50 μM); CC50 [2]: 5 ± 1.7 µM
O=C(Cn1ccnc1[N+](=O)[O-])NCc1ccccc1 [BNZ, benznidazole, reference compound]	> 768			56.5 ± 1.5		Cytotoxicity level (grade) [2]: no cytotoxicity; EC50 [1, 7]: 10 to 50 µM
COCOc1cc2oc(-c3ccc(Cl)cc3)cc(=O)c2cc1CC=C(C)C [Compound 30, 2-(4-Chlorophenyl)-7-(methoxymethoxy)-6-(3-methylbut-2-en-1-yl)-4H-chromen-4-one]	27.2 ± 3.3	<2	> 13.6		much better trypanocidal activity than the control drug BNZ	
CC(=O)c1cc(CC=C(C)C)c(O)cc1O [Compound 14, 1-(2,4-Dihydroxy-5-(3-methylbut-2-en-1-yl)phenyl)ethan-1-one]	34 ± 4.9	<2	> 17			
COc1cccc2c1C(=O)c1c(O)c3c(c(O)c1C2=O)C[C@@](O)(C(=O)CO)C[C@@H]3O[C@H]1C[C@H](N)[C@H](O)[C@H](C)O1 [DOX, doxorubicin, reference compound]	0.5					
CC(C)=CCc1cc2c(=O)ccoc2c(O)c1O [Compound 26, 7,8-Dihydroxy-6-(3-methylbut-2-en-1-yl)-4H-chromen-4-one]		4.59	< 10		much better trypanocidal activity than the control drug BNZ	Cytotoxicity (LC50) [2]: >200 µM; EC50 [1, 6]: 10.3 µM
O=c1ccoc2cc(O)ccc12 [Compound 10, 7-Hydroxy-4H-chromen-4-one]	23.4 ± 6.4	<2		> 11.7		
COCOc1cc(O)c(C(=O)C=Cc2ccc(OC)cc2)cc1CC=C(C)C [Compound 27, 1-(2-Hydroxy-4-(methoxymethoxy)-5-(3-methylbut-2-en-1-yl)phenyl)-3-(4-methoxyphenyl)prop-2-en-1-one]	43.4 ± 7.3	1.2	35.3 ± 1.1			EC50 [1, 4]: 10 to 50 µM
COCOc1cc2oc(-c3ccc(OC)cc3)cc(=O)c2cc1CC=C(C)C [Compound 29, 7-(Methoxymethoxy)-2-(4-methoxyphenyl)-6-(3-methylbut-2-en-1-yl)-4H-chromen-4-one]	17 ± 0.2	<2	> 9.8		much better trypanocidal activity than the control drug BNZ	
COCOc1cc(O)c(C(=O)C=Cc2ccc(Cl)cc2)cc1CC=C(C)C [Compound 28, 3-(4-Chlorophenyl)-1-(2-hydroxy-4-(methoxymethoxy)-5-(3-methylbut-2-en-1-yl)phenyl)prop-2-en-1-one]		<2	> 0.3		much better trypanocidal activity than the control drug BNZ	Cytotoxicity level (grade) [2]: high (high when LC50 values were lower than 50 μM)
